The record followed here is patent US9062071B2, “Substituted piperidines as HDM2 inhibitors” (Merck Sharp & Dohme Corp, priority 2011, dated 2015).

For this test, the target named is HDM2 protein (Homo sapiens, UniProt Q00987). Put plainly: fluorescence polarization screening assay (FP IC50). The class given is binding. The settings on record: class symbols. How it is done: The compounds were evaluated to determine activity at the HDM2 protein by known methods such as the fluorescence polarization screening assay that measures the inhibitory concentration that achieves 50% of maximal activity (FP IC50) and the dissociation constant for inhibitor binding (FP Ki). [Zhang et al., J. Analytical Biochemistry 331: 138-146 (2004)].
Sequence of HDM2 protein (Q00987 whole entry): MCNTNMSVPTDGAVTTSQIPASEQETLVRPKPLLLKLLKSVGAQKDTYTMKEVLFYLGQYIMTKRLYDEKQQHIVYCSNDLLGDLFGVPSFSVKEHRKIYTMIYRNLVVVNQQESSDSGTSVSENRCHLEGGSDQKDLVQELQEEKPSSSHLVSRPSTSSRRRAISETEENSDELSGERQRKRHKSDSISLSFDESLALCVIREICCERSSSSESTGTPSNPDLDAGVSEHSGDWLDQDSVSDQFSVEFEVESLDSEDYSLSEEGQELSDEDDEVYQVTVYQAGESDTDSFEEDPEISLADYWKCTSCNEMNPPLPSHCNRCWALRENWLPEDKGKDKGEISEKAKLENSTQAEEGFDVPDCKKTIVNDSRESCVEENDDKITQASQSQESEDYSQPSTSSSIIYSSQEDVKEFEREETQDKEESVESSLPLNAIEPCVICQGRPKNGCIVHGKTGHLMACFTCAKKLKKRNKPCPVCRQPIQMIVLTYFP

`CCN1CCN(CC[C@H]2N(C(=O)c3ncccc3C(F)(F)F)CCC[C@@]2(Oc2csc(C(F)(F)F)c2)C(=O)N2CCc3cc(Cl)ccc3C2)CC1` [Compound A114, 6-chloro-2-{[(2R,3S)-2-[2-(4-ethylpiperazin-1-yl)ethyl]-1-{[3-(trifluoromethyl)pyridin-2-yl]carbonyl}-3-{[5-(trifluoromethyl)thiophen-3-yl]oxy}piperidin-3-yl]carbonyl}-1,2,3,4-tetrahydroisoquinoline] gave an IC50 of 1 to 100 nM.

Molecule `CCC[C@H]1N(C(=O)c2ncccc2C(F)(F)F)CCC[C@@]1(Oc1csc(C(F)(F)F)c1)C(=O)N1CCc2cc(F)ccc2C1` [Compound A48, 6-fluoro-2-{[(2R,3S)-2-propyl-1-{[3-(trifluoromethyl)pyridin-2-yl]carbonyl}-3-{[5-(trifluoromethyl)thiophen-3-yl]oxy}piperidin-3-yl]carbonyl}-1,2,3,4-tetrahydroisoquinoline] gave an IC50 of 101 to 20000 nM.

The molecule `COCCN(CCOC)CC[C@H]1N(C(=O)c2cnccc2C(F)(F)F)CCC[C@@]1(Oc1csc(C(F)(F)F)c1)C(=O)N1CCc2cc(Cl)ccc2C1` [Compound A2, 2-[(2R,3S)-3-[(6-chloro-3,4-dihydroisoquinblin-2(1H)-yl)carbonyl]-1-{[4-(trifluoromethyl)byridin-3-yl]carbonyl}-3-{[5-(trifluoromethyl)thiophen-3-yl]oxy}piperidin-2-yl]-N,N-bis(2-methoxyethyl)ethanamine] displayed an IC50 of 1 to 100 nM.

In turn, `CCC[C@H]1N(C(=O)c2ncccc2C(F)(F)F)CCC[C@@]1(Oc1csc(C(F)(F)F)c1)C(=O)N1CCc2cc(N)ccc2C1` [Compound A11, 2-{[(2R,3S)-2-propyl-1-{[3-(trifluoromethyl)pyridin-2-yl]carbonyl}-3-{[5-(trifluoromethyl)thiophen-3-yl]oxy}piperidin-3-yl]carbonyl}-1,2,3,4-tetrahydroisoquinolin-6-amine] came in with an IC50 of 101 to 20000 nM.

Molecule `CCC[C@H]1N(C(=O)c2ncccc2C(F)(F)F)CCC[C@@]1(Oc1csc(C(F)(F)F)c1)C(=O)N1CCc2c(ccc(Cl)c2Cl)C1` [Compound A86, 5,6-dichloro-2-{[(2R,3S)-2-propyl-1-{[3-(trifluoromethyl)pyridin-2-yl]carbonyl}-3-{[5-(trifluoromethyl)thiophen-3-yl]oxy}piperidin-3-yl]carbonyl}-1,2,3,4-tetrahydroisoquinoline] had an IC50 of 101 to 20000 nM.

`CCC[C@H]1N(C(=O)c2ncccc2C(F)(F)F)CCC[C@@]1(Oc1csc(C(F)(F)F)c1)C(=O)N1CCc2cc(F)ccc2C1CCCCC(=O)O` (stereo partly drawn) [Compound A41, 5-(6-fluoro-2-{[(2R,3S)-2-propyl-1-{[3-(trifluoromethyl)pyridin-2-yl]carbonyl}-3-{[5-(trifluoromethyl)thiophen-3-yl]oxy}piperidin-3-yl]carbonyl}-1,2,3,4-tetrahydroisoquinolin-1-yl)pentanoic acid] had a 50% inhibitory concentration (IC50) of 1 to 100 nM.

`CCC[C@H]1N(C(=O)c2ncccc2C(F)(F)F)CCC[C@@]1(Oc1csc(C(F)(F)F)c1)C(=O)N1CCc2cc(Cl)ccc2C1C#N` (stereo partly drawn) [Compound A76, 6-chloro-2-{[(2R,3S)-2-propyl-1-{[3-(trifluoromethyl)pyridin-2-yl]carbonyl}-3-{[5-(trifluoromethyl)thiophen-3-yl]oxy}piperidin-3-yl]carbonyl}-1,2,3,4-tetrahydroisoquinoline-1-carbonitrile] registered a half-inhibitory concentration (IC50) of 101 to 20000 nM.

The molecule `CCC[C@H]1N(C(=O)c2ncccc2C(F)(F)F)CCC[C@@]1(Oc1csc(C(F)(F)F)c1)C(=O)N1CCc2sccc2C1` [Compound A8, 5-{[(2R,3S)-2-propyl-1-{[3-(trifluoromethyl)pyridin-2-yl]carbonyl}-3-{[5-(trifluoromethyl)thiophen-3-yl]oxy}piperidin-3-yl]carbonyl}-4,5,6,7-tetrahydrothieno[3,2-c]pyridine] came in with an IC50 of 101 to 20000 nM.

For the molecule `CCC[C@H]1N(C(=O)c2ncccc2C(F)(F)F)CCC[C@@]1(Oc1csc(C(F)(F)F)c1)C(=O)N1Cc2ccc(Cl)cc2C[C@@H]1C(=O)N1CCC(OC)CC1` [Compound A169, (3R)-6-chloro-3-[(4-methoxypiperidin-1-yl)carbonyl]-2-{[(2R,3S)-2-propyl-1-{[3-(trifluoromethyl)pyridin-2-yl]carbonyl}-3-{[5-(trifluoromethyl)thiophen-3-yl]oxy}piperidin-3-yl]carbonyl}-1,2,3,4-tetrahydroisoquinoline], the IC50 was 1 to 100 nM.

As for `CCC[C@H]1N(C(=O)c2ncccc2C(F)(F)F)CCC[C@@]1(Oc1csc(C(F)(F)F)c1)C(=O)N1CCc2cc(Cl)ccc2C1CC(=O)N1CCNC(=O)C1` (stereo partly drawn) [Compound A81, 4-[(6-chloro-2-{[(2R,3S)-2-propyl-1-{[3-(trifluoromethyl)pyridin-2-yl]carbonyl}-3-{[5-(trifluoromethyl)thiophen-3-yl]oxy}piperidin-3-yl]carbonyl}-1,2,3,4-tetrahydroisoquinolin-1-yl)acetyl]piperazin-2-one], the half-inhibitory concentration (IC50) fell in the range of 1 to 100 nM.

In turn, `CCC[C@H]1N(C(=O)c2ncccc2C(F)(F)F)CCC[C@@]1(Oc1csc(C(F)(F)F)c1)C(=O)N1CCc2cc(F)ccc2C1CCC(=O)NCc1nn[nH]n1` (stereo partly drawn) [Compound A60, 3-(6-fluoro-2-{[(2R,3S)-2-propyl-1-{[3-(trifluoromethyl)pyridin-2-yl]carbonyl}-3-{[5-(trifluoromethyl)thiophen-3-yl]oxy}piperidin-3-yl]carbonyl}-1,2,3,4-tetrahydroisoquinolin-1-yl)-N-(2H-tetrazol-5-ylmethyl)propanamide] gave an IC50 of 1 to 100 nM.

For `CCC[C@H]1N(C(=O)c2ncccc2C(F)(F)F)CCC[C@@]1(Oc1csc(C(F)(F)F)c1)C(=O)N1Cc2ccc(Cl)cc2C[C@@H]1C[C@H](CC)C(=O)O` [Compound A165, (2S)-2-{[(3S)-6-chloro-2-{[(2R,3S)-2-propyl-1-{[3-(trifluoromethyl)pyridin-2-yl]carbonyl}-3-{[5-(trifluoromethyl)thiophen-3-yl]oxy}piperidin-3-yl]carbonyl}-1,2,3,4-tetrahydroisoquinolin-3-yl]methyl}butanoic acid], the IC50 lay in the range of 1 to 100 nM.

Turning to `CCC[C@H]1N(C(=O)c2ncccc2C(F)(F)F)CCC[C@@]1(Oc1csc(C(F)(F)F)c1)C(=O)N1Cc2ccc(F)cc2C[C@@H]1CCN(C)C(=O)[C@@H](C)O` [Compound A163, (2R)-N-{2-[(3R)-6-fluoro-2-{[(2R,3S)-2-propyl-1-{[3-(trifluoromethyl)pyridin-2-yl]carbonyl}-3-{[5-(trifluoromethyl)thiophen-3-yl]oxy}piperidin-3-yl]carbonyl}-1,2,3,4-tetrahydroisoquinolin-3-yl]ethyl}-2-hydroxy-N-methylpropanamide], the 50% inhibitory concentration (IC50) lay in the range of 1 to 100 nM.

`CCC[C@H]1N(C(=O)c2cnccc2C(F)(F)F)CCC[C@@]1(Oc1csc(C(F)(F)F)c1)C(=O)N1CCc2ccccc2C1CC(=O)O` (stereo partly drawn) [Compound A122, (2-{[(2R,3S)-2-propyl-1-{[4-(trifluoromethyl)pyridin-3-yl]carbonyl}-3-{[5-(trifluoromethyl)thiophen-3-yl]oxy}piperidin-3-yl]carbonyl}-1,2,3,4-tetrahydroisoquinolin-1-yl)acetic acid]: the half-inhibitory concentration (IC50) was in the range of 1 to 100 nM.

For the molecule `CCC[C@H]1N(C(=O)c2ncccc2C(F)(F)F)CCC[C@@]1(Oc1ccc(OC(F)(F)F)cc1)C(=O)N1CCc2cc(Cl)ccc2[C@@H]1CCC(=O)O` [Compound A111], the IC50 was in the range of 1 to 100 nM.

For the molecule `CCC[C@H]1N(C(=O)c2ncccc2C(F)(F)F)CCC[C@@]1(Oc1csc(C(F)(F)F)c1)C(=O)N1CCc2cc(Cl)ccc2C1CC(C(=O)O)C(C)C` (stereo partly drawn) [Compound A177, 2-[(6-chloro-2-{[(2R,3S)-2-propyl-1-{[3-(trifluoromethyl)pyridin-2-yl]carbonyl}-3-{[5-(trifluoromethyl)thiophen-3-yl]oxy}piperidin-3-yl]carbonyl}-1,2,3,4-tetrahydroisoquinolin-1-yl)methyl]-3-methylbutanoic acid], the 50% inhibitory concentration (IC50) fell in the range of 101 to 20000 nM.

Regarding `O=C(c1ncccc1C(F)(F)F)N1CCC[C@@](Oc2csc(C(F)(F)F)c2)(C(=O)N2CCc3cc(Cl)ccc3C2)[C@H]1CCNC1CCOCC1` [Compound A112, N-{2-[(2R,3S)-3-[(6-chloro-3,4-dihydroisoquinolin-2(1H)-yl)carbonyl]-1-{[3-(trifluoromethyl)pyridin-2-yl]carbonyl}-3-{[5-(trifluoromethyl)thiophen-3-yl]oxy}piperidin-2-yl]ethyl}tetrahydro-2H-pyran-4-amine], the IC50 is 1 to 100 nM.

Regarding `CCC[C@H]1N(C(=O)c2ncccc2C(F)(F)F)CCC[C@@]1(Oc1csc(C(F)(F)F)c1)C(=O)N1Cc2ccc(F)cc2C[C@H]1CN(C)C(=O)[C@@H](C)O` [Compound A158, (2R)-N-{[(3S)-6-fluoro-2-{[(2R,3S)-2-propyl-1-{[3-(trifluoromethyl)pyridin-2-yl]carbonyl}-3-{[5-(trifluoromethyl)thiophen-3-yl]oxy}piperidin-3-yl]carbonyl}-1,2,3,4-tetrahydroisoquinolin-3-yl]methyl}-2-hydroxy-N-methylpropanamide], the IC50 lay in the range of 101 to 20000 nM.

`CCC[C@H]1N(C(=O)c2ncccc2C(F)(F)F)CCC[C@@]1(Oc1csc(C(F)(F)F)c1)C(=O)N1Cc2sc(Cl)cc2CC1C(=O)O` (stereo partly drawn) [Compound A172, 2-chloro-6-{[(2R,3S)-2-propyl-1-{[3-(trifluoromethyl)pyridin-2-yl]carbonyl}-3-{[5-(trifluoromethyl)thiophen-3-yl]oxy}piperidin-3-yl]carbonyl}-4,5,6,7-tetrahydrothieno[2,3-c]pyridine-5-carboxylic acid]: the IC50 lay in the range of 1 to 100 nM.

The molecule `CCC[C@H]1N(C(=O)c2ncccc2C(F)(F)F)CCC[C@@]1(Oc1csc(C(F)(F)F)c1)C(=O)N1Cc2ccc(Cl)cc2C[C@@H]1C(=O)NC1CCOCC1` [Compound A166, (3R)-6-chloro-2-{[(2R,3S)-2-propyl-1-{[3-(trifluoromethyl)pyridin-2-yl]carbonyl}-3-{[5-(trifluoromethyl)thiophen-3-yl]oxy}piperidin-3-yl]carbonyl}-N-(tetrahydro-2H-pyran-4-yl)-1,2,3,4-tetrahydroisoquinoline-3-carboxamide] showed an IC50 of 1 to 100 nM.
